The inhibition is the relative decrease from the control value, in per cent. For orientation: pIC50 means the negative decadic logarithm of the IC50, by convention in mol/L.

The text below walks through data of PMC10584170, “Machine learning-based phenotypic imaging to characterise the targetable biology of Plasmodium falciparum male gametocytes for the development of transmission-blocking antimalarials” (PLOS Pathogens, 2023).

pIC50: −log10 of the molar value. Read-outs that look alike come from different tables or passages of the source.

One data set concerns HepG2 cells. Briefly: HepG2 cytotoxicity counter-screen. As to conditions: cytotoxic activity against HepG2 cells. On the technique in general: Counterscreens check selectivity or assay interference.
The subject of data set [1] is P. falciparum female gametocytes. The data set is described as follows: P. falciparum Dual Gamete Formation Assay (PfDGFA), female readout (Pfs25-positive female gametes). The format is cell-based, Plasmodium falciparum NF54. As to conditions: for Selectivity ratio F: HepG2 Tox50 versus female IC50; for inhibition at 2 µM / pIC50: Plasmodium falciparum; for inhibition at 2 µM: 24h preincubation with gametocytes; for pIC50: PfDGFA, 24 h incubation with gametocytes before induction, female gamete readout, read-out: Female IC50. A digest of the protocol: (§1)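 Male and female gamete formation were quantified by microscopy image analysis following 24 h incubation of mature NF54 gametocytes with compound and activation at 28°C with xanthurenic acid.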

In data set [2] the test system is P. falciparum male gametocytes. Briefly: P. falciparum Dual Gamete Formation Assay (PfDGFA), male readout (exflagellation). Type of data set: cell-based, Plasmodium falciparum NF54. As to conditions: for Selectivity Ratio M: HepG2 Tox50 versus male IC50; for inhibition at 2 µM / pIC50: Plasmodium falciparum; for inhibition at 2 µM: 24h preincubation with gametocytes; for pIC50: PfDGFA, 24 h incubation with gametocytes before induction, exflagellation readout, read-out: Male IC50. A digest of the protocol:
as §1

Where [3] appears, read: average of replicates, read-out: Average inhibition female (%).
[4] abbreviates: replicate R1, read-out: % inhibition female (individual replicates) R1.
Setting [5] is: replicate R2, read-out: % inhibition female (individual replicates) R2.
The mark [6] stands for this setting: replicate R3, read-out: % inhibition female (individual replicates) R3.
The mark [7] stands for this setting: replicate R4, read-out: % inhibition female (individual replicates) R4.
The mark [8] stands for this setting: average of replicates, read-out: Average inhibition male (%).
Where [9] appears, read: replicate R1, read-out: % inhibition male (individual replicates) R1.
Setting [10] is: replicate R2, read-out: % inhibition male (individual replicates) R2.
[11] abbreviates: replicate R3, read-out: % inhibition male (individual replicates) R3.
[12] abbreviates: replicate R4, read-out: % inhibition male (individual replicates) R4.

Take `c1ccc(-c2nc(Nc3nc4ccccc4[nH]3)[nH]c2-c2ccccc2)cc1` [TCMDC-139099]: the Tox50 in the data set with HepG2 cells was determined as 16.22 µM. Further, the “Selectivity ratio F” value in data set [1] turned out to be 15.94. Besides, the inhibition at 2 µM turned out to be 58.5% in data set [1] (setting [3]); 38.7% in data set [1] (setting [4]); 75.2% in data set [1] (setting [5]); 46.9% in data set [1] (setting [6]); 73.1% in data set [1] (setting [7]); 97.9% in data set [2] (setting [8]). In addition, the inhibition at 2 µM in data set [2] (setting [9]) was 97.5%; in data set [2] (setting [10]), 98.5%; in data set [2] (setting [11]) it was 96.8%; in data set [2] (setting [12]) it was 98.9%. Besides, the pIC50 is 5.99 in data set [1] and 6.02 in data set [2]. The “Selectivity Ratio M” value in data set [2] is 17.05.
As to `COc1ccc2nc(N=C3NC4(c5ccccc5)NC(=Nc5nc6ccc(OC)cc6[nH]5)NC4(c4ccccc4)N3)[nH]c2c1.O=C(O)C(F)(F)F` (centres unmarked) [TCMDC-139632], the Tox50 in the data set with HepG2 cells came out at 33.52 µM. In addition, the “Selectivity ratio F” value in data set [1] amounted to 5.74. For the same compound, the inhibition at 2 µM worked out at 18.9% in data set [1] (setting [3]); 23.3% in data set [1] (setting [4]); 24.8% in data set [1] (setting [5]); 10.6% in data set [1] (setting [6]); 17.1% in data set [1] (setting [7]); 94.4% in data set [2] (setting [8]). For the same compound, the inhibition at 2 µM amounted to 95.5% in data set [2] (setting [9]), 96.3% in data set [2] (setting [10]), 95.1% in data set [2] (setting [11]) and 90.9% in data set [2] (setting [12]). Also, the results for the pIC50 in data set [1] and in data set [2] were 5.23 and 5.94, respectively. Moreover, the “Selectivity Ratio M” value in data set [2] came out at 29.01.
In the data set with HepG2 cells, `Br.c1cc(Nc2nc(-c3ccc(-c4csc(Nc5ccncc5)n4)cc3)cs2)ccn1` [TCMDC-139725] came in with a Tox50 of 4.53 µM. Further, in data set [1], the “Selectivity ratio F” value was found to be 15.01. Also, the inhibition at 2 µM turned out to be 92.1% in data set [1] (setting [3]); 90.8% in data set [1] (setting [4]); 87.3% in data set [1] (setting [5]); 93.4% in data set [1] (setting [6]); 96.9% in data set [1] (setting [7]); 95.5% in data set [2] (setting [8]). Further, the inhibition at 2 µM was 101% in data set [2] (setting [9]), 98.4% in data set [2] (setting [10]), 91.3% in data set [2] (setting [11]) and 91.8% in data set [2] (setting [12]). The pIC50 in data set [1] and in data set [2] was 6.52 in each case. Also, the “Selectivity Ratio M” value in data set [2] is recorded as 15.17.
As to `CN(C)c1ccnc2ccc(NC(=O)Nc3ccnc4ccccc34)cc12` [TCMDC-139749], in the data set with HepG2 cells, the Tox50 is reported as 22.68 µM. The “Selectivity ratio F” value in data set [1] worked out at 3.83. Further, the inhibition at 2 µM came out at 29.2% in data set [1] (setting [3]); 32.7% in data set [1] (setting [4]); 28.8% in data set [1] (setting [5]); 22.7% in data set [1] (setting [6]); 32.6% in data set [1] (setting [7]); 96.1% in data set [2] (setting [8]). Besides, the results for the inhibition at 2 µM in data set [2] (setting [9]), in data set [2] (setting [10]) and in data set [2] (setting [12]) were 97.3%, 94.7% and 96.1%, respectively. Also, the results for the pIC50 in data set [1] and in data set [2] were 5.23 and 5.77, respectively. Besides, the “Selectivity Ratio M” value in data set [2] is on record as 13.31.
